The results in this text go back to patent US20230303486A1, “CYCLOBUTYL-UREA DERIVATIVES” (Idorsia Pharmaceuticals Ltd, priority 2020, published 2023).

In the test the test system is primary neuronal cultures from embryonic rat brains. Description: Rat oscillation assay (FLIPR, neuronal calcium oscillations). The format is cell-based. As for the experimental part:
This assay is a functional phenotypic assay designed to mimic epileptic seizures using primary neuronal cultures from embryonic rat brains, which form a functional neuronal network that generate synchronized intracellular calcium concentration oscillations when cultured at high density in 384-well plate. The epileptic phenotype is induced by incubating the neurons in magnesium-free assay buffer, that results in increased probability of NMDA receptor activation, leading to an increased frequency and amplitude of intracellular calcium oscillations. Once neurons are incubated with the calcium indicator dye Fluo-8 AM (Tebu-bio), neuronal calcium oscillations can be monitored in real time using FLIPR® Tetra (fluorometric plate reader, Molecular Devices). With these recordings, the effect of anti-epileptic drugs can be quantified. The anti-epileptic effect of compounds, which activate directly or indirectly the Kv7 channels can be modulated by the Kv7 channel blocker XE-991. The assay was performed as described previously (Pacico N, Mingorance-Le Meur A. New In Vitro Phenotypic Assay for Epilepsy: Fluorescent Measurement of Synchronized Neuronal Calcium Oscillations. PLoS ONE 9(1) 2014) with modifications described hereafter.
Animal care followed standard procedures in accordance with swiss institutional guidelines. Dissociated neuronal cultures were obtained from cerebral cortices of embryonic Wistar rats at embryonic stage E18 (Charles River). The uterine horns were removed by caesarian surgery from deeply anesthetized rats (Isofurane) and sacrificed by decapitation. The embryos were decapitated by closing forceps. The brains were isolated and dissected one by one in ice-cold PBS (Life Technologies) under optical control using a binocular. Meninges, olfactory bulbs, and basal ganglia were removed. Cortical hemispheres (still including the hippocampus) were cut in small pieces with tweezers and placed on ice in prechilled Hibernate-E medium (Life technology). The hemispheres were then incubated in 10 mL of Hibernate-E containing 15 U/mL papain (Worthington) for 25 min at 30° C. with gentle mixing every 10 min. Genomic DNA was then digested by prolonging the incubation during 10 min at 37° C. in presence of 4 U/mL rDNase I (Ambion). The obtained suspension was then centrifuged at 800 g for 5 min and the cell pellet was resuspended in 2 mL Hibernate-E and gently dissociated by pipetting up and down 10 times with a plastic Pasteur pipette resulting in a homogenous cell suspension. This suspension was immediately filtered through a 70 µm cell strainer (MACS® SmartStrainer, Miltenyi), collected in 10 mL Hibernate-E and centrifuged at 800 g for 5 min. The cell pellet was resuspended in Neurobasal medium, supplemented with 2% B-27, 0.5 mM Glutamax-I, 100 U/mL penicillin, 100 µg/mL streptomycin (Life Technologies) and diluted at the final concentration of 300′000 cells/mL. One day before plating the cells, 384-well plates were coated with 25 µL/well of 0.1 % poly-L-lysine solution (Sigma), incubated overnight at 37° C., washed two times with sterile distilled water and allowed to dry at room temperature for >2 h. The neurons were seeded at a density of 15′000 cells/well in 50 µL/well in a 384-well black, clear-bottomed plates (Corning) and subsequently maintained in an incubator at 37° C., 5% CO2 and 95% humidity for 8 to 10 days. After 3 and 7 days, 40% of media was renewed under sterile conditions.
Neurons seeded in the assay plates were washed with Hank’s balanced salt solution (HBSS) devoid of Ca^2+ and Mg^2+, supplemented with 20 mM HEPES (Life Technologies) and 2 mM CaCl2 (Sigma), pH 7.4 (hereafter called Assay buffer) using a Biotek EL406 plate washer. Neurons were loaded with 1 µM Fluo-8 AM in Assay buffer for 15 min at 37° C., 5% CO2. […]

The mark [1] stands for this setting: Rattus norvegicus, 20 min, 20 min after compound addition, AUC of fluorescence, read-out: FLIPR: IC50 [nM] 20 min.
Where [2] appears, read: Rattus norvegicus, Cortical neurone, acute phase, ratio of AUC fluorescence before and after compound addition, rat cortical neurons, Mg-free buffer, read-out: FLIPR: IC50 [nM] acute.
The mark [3] stands for this setting: 20 min after compound addition, AUC of fluorescence, read-out: FLIPR: IC50 [nM] 20 min.
Where [4] appears, read: acute phase, ratio of AUC fluorescence before and after compound addition, rat cortical neurons, Mg-free buffer, read-out: FLIPR: IC50 [nM] acute.

Like-named read-outs stand apart in the source and are kept apart here.

As to `O=C(NCc1ccnc(OC(F)(F)F)c1)NC1CC(C(F)F)C1` (stereo not drawn) [Example 29, 1-(3-Difluoromethyl-Cyclobutyl)-3-(2-Trifluoromethoxy-Pyridin-4-Ylmethyl)-Urea], the half-maximal inhibitory concentration (IC50) is, setting by setting: under setting [1], 2150 nM; under setting [2], 367 nM.

As for `O=C(NCc1cccc(OCC(F)(F)F)c1)NC1CC(C(F)F)C1` (stereo not drawn) [Example 18, 1-(3-Difluoromethyl-cyclobutyl)-3-[3-(2,2,2-trifluoro-ethoxy)-benzyl]-urea], the IC50 by setting is: under setting [1], 1080 nM; under setting [2], 377 nM.

Turning to `CC(NC(=O)NC1CC(C(F)F)C1)c1cccc(C(F)(F)F)c1` (stereo not drawn) [Example 3, 1-(3-Difluoromethyl-cyclobutyl)-3-[1-(3-trifluoromethylphenyl)-ethyl]-urea], the IC50 is, setting by setting: under setting [1], 334 nM; under setting [2], 188 nM.

As to `O=C(NC1CC(O)(C(F)(F)F)C1)NC(c1cccc(C(F)(F)F)c1)C(F)F` (stereo not drawn) [Example 9, 1-[2,2-Difluoro-1-(3-Trifluoromethyl-Phenyl)-Ethyl]-3-(3-Hydroxy-3-Trifluoromethyl-Cyclobutyl)-Urea], the IC50 turned out to be 1420 nM under setting [1] and 766 nM under setting [2].

Regarding `O=C(NCc1cccc(OCC(F)(F)F)c1)NC12CC(C(F)(F)F)(C1)C2` [Example 19, 1-[3-(2,2,2-Trifluoro-ethoxy)-benzyl]-3-(3-trifluoromethyl-bicyclo[1.1.1]pent-1-yl)-urea], the IC50 was 111 nM under setting [1] and 50 nM under setting [2].

Take `O=C(NCc1cccc(C(F)F)c1)NC1CC(C(F)F)C1` (stereo not drawn) [Example 27, 1-(3-Difluoromethyl-Benzyl)-3-(3-Difluoromethyl-Cyclobutyl)-Urea]: the IC50 is, setting by setting: under setting [1], 1730 nM; under setting [2], 1340 nM.

For `O=C(NCc1cccc(C(F)(F)F)c1)NC12CCC(C1)C2` [Example 48, 1-Bicyclo[2.1.1]Hex-1-yl-3-(3-Trifluoromethyl-Benzyl)-Urea], the IC50 was determined as 484 nM under setting [1] and 232 nM under setting [2].

With `O=C(NCc1ccnc(OCC(F)(F)F)c1)NC12CC(F)(C1)C2` [Example 44, 1-(3-Fluoro-bicyclo[1.1.1]pent-1-yl)-3-[2-(2,2,2-trifluoro-ethoxy)-pyridin-4-ylmethyl]-urea], the IC50 under setting [1] is 1350 nM and the IC50 under setting [2] was determined as 591 nM.

As to `COCC(NC(=O)NC1CC(C(F)F)C1)c1ccnc(OCC(F)(F)F)c1` (racemic) [Example 31, (±)-1-(3-Difluoromethyl-Cyclobutyl)-3-{2-Methoxy-1-[2-(2,2,2-Trifluoro-Ethoxy)-Pyridin-4-yl]-Ethyl}-Urea], the concentration for half-maximal inhibition (IC50) by setting is: under setting [1], 763 nM; under setting [2], 190 nM.

Turning to `C[C@H](NC(=O)NC1CC(C(F)F)C1)c1cccc(OC(F)(F)F)c1` (single isomer, unassigned) [Example 57], the IC50 came out at 314 nM under setting [3] and 146 nM under setting [4].

Take `COCC(NC(=O)NC1CC(C(F)(F)F)C1)c1ccnc(OCC(F)(F)F)c1` (racemic) [Example 32, (±)-1-{2-Methoxy-1-[2-(2,2,2-Trifluoro-Ethoxy)-Pyridin-4-yl]-Ethyl}-3-(3-Trifluoromethyl-Cyclobutyl)-Urea]: the IC50 was determined as 303 nM under setting [1] and 67 nM under setting [2].

In the case of `O=C(NCc1cccc(C(F)(F)F)c1)NC1CC(C(F)(F)F)C1` (single isomer, unassigned) [Example 51, 1-(3-(Trifluoromethyl)Benzyl)-3-(3-(Trifluoromethyl)Cyclobutyl)Urea], the IC50 reads like this: under setting [3], 515 nM; under setting [4], 363 nM.

For `O=C(NCc1cccc(C(F)(F)F)c1)NC1CC(C(F)(F)F)C1` (stereo not drawn) [Example 41, 1-(3-Trifluoromethyl-benzyl)-3-(3-trifluoromethyl-cyclobutyl)-urea], the IC50 reads like this: under setting [1], 117 nM; under setting [2], 73 nM.

With `C[C@H](NC(=O)NC1CC(C(F)F)C1)c1cccc(OC(F)(F)F)c1` (single isomer, unassigned) [Example 58], the IC50 turned out to be 105 nM under setting [3] and 51 nM under setting [4].

Consider `Cc1nc(OCC(F)(F)F)cc([C@H](C)NC(=O)NC23CC(C(F)(F)F)(C2)C3)n1` (single isomer, unassigned) [Example 54], for which the IC50 under setting [1] came to 216 nM and the half-inhibitory concentration (IC50) under setting [2] turned out to be 218 nM.

With `O=C(NCc1ccnc(OCC(F)(F)F)c1)NC1CC(C(F)F)C1` (stereo not drawn) [Example 46, 1-(3-Difluoromethyl-cyclobutyl)-3-[2-(2,2,2-trifluoro-ethoxy)-pyridin-4-ylmethyl]-urea], the half-maximal inhibitory concentration (IC50) runs as follows: under setting [1], 257 nM; under setting [2], 148 nM.

For `O=C(NCc1cccc(OC(F)F)c1)NC12CC(C(F)(F)F)(C1)C2` [Example 22, 1-(3-Difluoromethoxy-benzyl)-3-(3-trifluoromethyl-bicyclo[1.1.1]pent-1-yl)-urea], the half-maximal inhibitory concentration (IC50) runs as follows: under setting [1], 311 nM; under setting [2], 134 nM.

Consider `O=C(NCc1cccc(C(F)(F)F)c1)NC1CC(C(F)F)C1` (stereo not drawn) [Example 38, 1-(3-Difluoromethyl-cyclobutyl)-3-(3-trifluoromethyl-benzyl)-urea], for which the IC50 under setting [1] worked out at 390 nM and the IC50 under setting [2] came to 135 nM.

As for `O=C(NCc1cccc(OC(F)(F)F)c1)NC1CC(C(F)F)C1` (stereo not drawn) [Example 25, 1-(3-Difluoromethyl-cyclobutyl)-3-(3-trifluoromethoxy-benzyl)-urea], the IC50 by setting is: under setting [1], 610 nM; under setting [2], 235 nM.

Consider `CC(NC(=O)NC12CC(F)(C1)C2)c1cccc(C(F)(F)F)c1` (stereo not drawn) [Example 4, 1-(3-Fluoro-bicyclo[1.1.1]pent-1-yl)-3-[1-(3-trifluoromethylphenyl)-ethyl]-urea], for which the IC50 runs as follows: under setting [1], 1060 nM; under setting [2], 138 nM.

Regarding `O=C(NCc1cccc(C(F)(F)F)c1)NC1CC(F)(F)C1` [Example 1, 1-(3,3-Difluoro-Cyclobutyl)-3-(3-Trifluoromethyl-Benzyl)-Urea], the half-inhibitory concentration (IC50) under setting [1] worked out at 855 nM and the IC50 under setting [2] worked out at 486 nM.

Regarding `O=C(NCc1cccc(C(F)(F)F)c1)NC1CC(C(F)F)C1` (single isomer, unassigned) [Example 52, 1-(3-(Difluoromethyl)Cyclobutyl)-3-(3-(Trifluoromethyl)Benzyl)Urea], the IC50 reads like this: under setting [3], 738 nM; under setting [4], 660 nM.

With `O=C(NCc1ccnc(OCC(F)(F)F)c1)NC1CC(C(F)F)C1` (single isomer, unassigned) [Example 55, 1-(3-(Difluoromethyl)Cyclobutyl)-3-((2-(2,2,2-Trifluoroethoxy)Pyridin-4-yl)Methyl)Urea], the IC50 worked out at 1160 nM under setting [3] and 701 nM under setting [4].

For `O=C(NCc1cccc(C(F)(F)F)c1)NC12CC(F)(C1)C2` [Example 36, 1-(3-Fluoro-bicyclo[1.1.1]pent-1-yl)-3-(3-trifluoromethyl-benzyl)-urea], the concentration for half-maximal inhibition (IC50) turned out to be 344 nM under setting [1] and 245 nM under setting [2].

For the compound `CC(NC(=O)NC12CC(C1)C2)c1cccc(OC(F)(F)F)c1` (stereo not drawn) [Example 6, 1-Bicyclo[1.1.1]Pent-1-yl-3-[1-(3-Trifluoromethoxy-Phenyl)-Ethyl]-Urea], the IC50 reads like this: under setting [1], 271 nM; under setting [2], 126 nM.

For `O=C(NCc1ccnc(OCC(F)(F)F)c1)NC12CC(C(F)(F)F)(C1)C2` [Example 45, 1-[2-(2,2,2-Trifluoro-ethoxy)-pyridin-4-ylmethyl]-3-(3-trifluoromethyl-bicyclo[1.1.1]pent-1-yl)-urea], the IC50 by setting is: under setting [1], 701 nM; under setting [2], 131 nM.

`Cc1nc(OCC(F)(F)F)cc(C(C)NC(=O)NC23CC(C(F)(F)F)(C2)C3)n1` (racemic) [Example 34, (±)-1-{1-[2-Methyl-6-(2,2,2-Trifluoro-Ethoxy)-Pyrimidin-4-yl]-Ethyl}-3-(3-Trifluoromethyl-Bicyclo[1.1.1]Pent-1-yl)-Urea]: the IC50 under setting [1] stood at 291 nM and the IC50 under setting [2] was determined as 247 nM.

As a reminder, the IC50 is the concentration needed to halve the response being measured.
